Measurements taken from patent US20210010053A1, “ASSAYS FOR IMPROVING AUTOMATED ANTIMICROBIAL SUSCEPTIBILITY TESTING ACCURACY” (SELUX DIAGNOSTICS, INC., priority 2019, published 2021).

Tests used:
beta lactamase = test: beta-lactamase inhibitor assay with nitrocefin probe; format: cell-based; details: 4μg/mL inhibitor, 0.25 mg/mL nitrocefin, 35° C., 4 hours, absorbance 490 nm, FIG. 1
Description: Example 1. Microbes were prepared by diluting colonies into saline to reach a McFarland value of 0.5, which was verified using a spectrophotometer. This was diluted 1:20 into saline and 50 μI of inoculum was added to wells of a 384-well plate. For each strain, 25 μI of solutions containing either 0.25 mg/mL nitrocefin alone (Nitro), 0.25 mg/mL nitrocefin and 4μg/mL clauvulanate (Nitro Clay), or 0.25 mg/mL nitrocefin and 4μg/mL tazobactam (Nitro Tazo) were added to duplicate wells. Inoculated plates were incubated at 35° C., shaking at 150 rpm for 4 hours. Absorbance was read at 490 nm and values shown in FIG. 1 are the absorbance in the indicated condition minus the absorbance from microbial inoculum alone without nitrocefin. A greater value indicates microbial ability to degrade nitrocefin, and thus, the presence of a beta lactamase. A reduction in absorbance value in the presence of an inhibitor indicates the beta lactamase present is sensitive to the inhibitor. […] Further, the inhibitors are both active against each of the strains with known beta lactamases.

E cloacae (IMP) = details: 0.01 mM EDTA added to Solution 4, vacuum dried, 3 hours of incubation
Description: (§1) Example 9. […] Multiple different bacterial strains listed in Table 7 were inoculated into each of 3 wells.

E cloacae (NDM) = details: 0.01 mM EDTA added to Solution 4, vacuum dried, 3 hours of incubation
Description: as §1

E coli 25922 = details: E coli 25922, no carbapenemase; 0.01 mM EDTA added to Solution 4, vacuum dried; 3 hours of incubation
Description: as §1

K pneumoniae (KPC) = details: 0.01 mM EDTA added to Solution 4, vacuum dried, 3 hours of incubation
Description: as §1

K pneumoniae (NDM) = details: 0.01 mM EDTA added to Solution 4, vacuum dried, 3 hours of incubation
Description: as §1

M morganii (KPC) = details: 0.01 mM EDTA added to Solution 4, vacuum dried, 3 hours of incubation
Description: as §1

M morganii (NDM) = details: 0.01 mM EDTA added to Solution 4, vacuum dried, 3 hours of incubation
Description: as §1

Compound: O=C(O)[C@H]1/C(=C/CO)O[C@@H]2CC(=O)N21 [clauvulanate]
- activity of inhibitor against strains with known beta lactamases (reduction in nitrocefin absorbance) (beta lactamase): active

Compound: O=C(O)CN(CCN(CC(=O)O)CC(=O)O)CC(=O)O [EDTA, Ethylenediaminetetraacetic acid]
- Carba Test with EDTA (E cloacae (IMP)): −1816.5
- Carba Test with EDTA (E cloacae (NDM)): −2084.5
- Carba Test with EDTA (E coli 25922): −1541.5
- Carba Test with EDTA (K pneumoniae (KPC)): 3705.5
- Carba Test with EDTA (K pneumoniae (NDM)): −2222.5
- Carba Test with EDTA (M morganii (KPC)): 1288.5
- Carba Test with EDTA (M morganii (NDM)): −1923.5

Compound: C[C@]1(Cn2ccnn2)[C@H](C(=O)O)N2C(=O)C[C@H]2S1(=O)=O [tazobactam]
- activity of inhibitor against strains with known beta lactamases (reduction in nitrocefin absorbance) (beta lactamase): active
